From patent US9258995B2, “Organ cold storage composition and methods of use” (BOARD OF TRUSTEES OF THE UNIVERSITY OF ARKANSAS, priority 2009, dated 2016)

Legend:
NRK cells = test: Nitrotyrosine immunocytochemistry during CS; assay type: cell-based, rat; conditions: 4 h CS, 1 μM
Protocol: (§1) Normal rat kidney proximal tubular cells (NRK-52E; American Type Culture Collection, Manassas, Va.) were maintained in six-well 100 or 150-mm, or 150-mm plates in a humidified incubator gassed with 5% CO2 and 95% air at 37° C. in DMEM (Invitrogen, Carlsbad, Calif.) containing 5% fetal calf serum (FCS). Cells were grown to 60% confluence and divided into four treatment groups: 1) untreated (Untx), 2) CS, 3) CS+MitoQ, and 4) CS+DecylTPP. Untreated cells remained at 37° C. in DMEM containing 5% FCS (group 1). CS was initiated by washing cells with cold PBS (Invitrogen) twice and storing them in UW/Viaspan solution alone (4 h at 4° C.) (group 2), CS+MitoQ (1 μM) (group 3), or CS+DecylTPP (1 μM) (group 4). In separate experiments, cells were exposed to CS plus RW by replacing UW solution alone or UW solution containing MitoQ or DecylTPP with DMEM containing 5% FCS overnight (18 h at 37° C.).
NRK cells (groups 1-4) were assessed for nitrotyrosine formation as previously described. […] Nitrotyrosine staining was evaluated and captured with equal exposure times using a Nikon Eclipse 800 microscope (40×oil). Images were quantified by averaging the mean intensity fluorescence of five random cells in three different fields using Nikon N is Elements software. Renal tissue sections were assessed for the presence of nitrotyrosine protein adducts by nitrotyrosine immunohistochemistry. […]

[1] = test system: porcine renal mitochondrial respiratory complex IV; test: Mitochondrial respiratory complex activity, porcine ex vivo renal model
Protocol: (§2) FIG. 15 depicts graphs showing activities or (A) porcine renal mitochondrial respiratory complex I, (B) activities or porcine renal mitochondrial respiratory complex II/III, and (C) activities or porcine renal mitochondrial respiratory complex IV, after MitoQ treatment. MitoQ ([…]) protected porcine complex II/III following 24 hr cold preservation. Values are expressed as mean SEM (n=4).
(§3) Mitochondrial respiratory complex activity was also evaluated in the porcine ex vivo renal model at 24-h and 48-h CS. […] Protection of Complex II/III by MitoQ (100 μM) was significant following 24-h cold preservation.

[2] = test system: porcine renal mitochondrial respiratory complex I; test: as above
Protocol: as §2, §3

rat kidneys = test: Rodent model of warm ischemia/reperfusion (I/R); assay type: in vivo; conditions: rat kidneys following warm I/R; MitoQ 48 hr oral; 100 μM
From the text: (§4) Rodent models of warm ischemia/reperfusion (I/R) (FIGS. 6-7) and cold renal preservation, as well as renal cell models of cold storage (FIG. 3-5) were used to evaluate the effectiveness of MitoQ in preventing renal damage during ischemia. […] In addition, Mito Q blunted mitochondrial superoxide production (Mitosox Red staining) and respiratory complex dysfunction following cold preservation (FIGS. 4-5).

[3] = test system: mitochondrial respiratory complex; test: Mitochondrial respiratory complex activity in kidneys following cold storage (Example 1); parameters: species or system rat; conditions: following cold preservation (Example 1); MitoQ 100 μM
Protocol: FIG. 4 depicts a graph showing the effect of MitoQ treatment (100 μM) on mitochondrial respiratory complex activity in kidneys following cold storage *P<0.05 compared with control.
as §4

[4] = test system: mitochondrial respiratory complex I; test: Mitochondrial respiratory complex activity, NRK cell mitochondria after CS; assay type: cell-based, rat; conditions: NRK cells, 4-h CS, 1 μM
Protocol: as §1
(§5) NRK cell and rat kidney mitochondria were isolated by centrifugation on a sucrose density gradient. The activity of mitochondrial respiratory complexes I, II, III, or IV were assayed spectrophotometrically using 100 μg of mitochondrial protein at 30° C. as previously described.

[5] = test system: mitochondrial respiratory complex II; test: as above; assay type: cell-based, rat; conditions: NRK cells, 4-h CS, 1 μM
Protocol: as §1, §5

## COC1=C(OC)C(=O)C(CCCCCCCCCC[P+](c2ccccc2)(c2ccccc2)c2ccccc2)=C(C)C1=O [MitoQ, mitoquinone]
NRK cells
  attenuation of nitrotyrosine formation: ~2 fold
[1]
  protection of Complex IV activity, 24-h versus 48-h CS: at 24-h better than at 48-h
[2]
  protection of Complex I activity, 24-h versus 48-h CS: at 24-h better than at 48-h
Rat kidneys
  MnSOD activity: improved
[3]
  respiratory complex dysfunction: blunted
[4]
  complex I inactivation: completely prevented
[5]
  complex II inactivation: completely prevented
